Key:
[1] = target: Mitogen-activated protein kinase 10 (Homo sapiens, UniProt P53779); test: Inhibition of JNK3 (unknown origin) at 1 uM relative to control
[2] = system: Malme-3M; test: Antiproliferative activity against human Malme-3M cells measured after 48 hrs by SRB assay; type: functional, cell-based; settings: for IC50: 48 h; for TGI: time 48 hrs
[3] = system: Hs-578T; test: Antiproliferative activity against human Hs-578T cells measured after 48 hrs by SRB assay; type: functional, cell-based; settings: for IC50: 48 h; for TGI: time 48 hrs
[4] = system: MOLT-4; test: Antiproliferative activity against human MOLT-4 cells measured after 48 hrs by SRB assay; type: functional, cell-based; settings: for IC50: MOLT-4, 48 h; for TGI: MOLT-4, time 48 hrs
[5] = system: WI-38; test: Antiproliferative activity against human WI-38 cells measured by MTT assay; type: functional, cell-based
[6] = system: RPMI-8226; test: Antiproliferative activity against human RPMI-8226 cells measured after 48 hrs by SRB assay; type: functional, cell-based; settings: for IC50: RPMI-8226, 48 h; for TGI: RPMI-8226, time 48 hrs
[7] = system: TK-10; test: Antiproliferative activity against human TK-10 cells measured after 48 hrs by SRB assay; type: functional, cell-based; settings: for IC50: TK-10, 48 h; for TGI: TK-10, time 48 hrs
[8] = system: SF-295; test: Antiproliferative activity against human SF-295 cells measured after 48 hrs by SRB assay; type: functional, cell-based; settings: for IC50: SF-295, 48 h; for TGI: SF-295, time 48 hrs
[9] = system: COLO 205; test: Antiproliferative activity against human COLO 205 cells measured after 48 hrs by SRB assay; type: functional, cell-based; settings: for IC50: COLO 205, 48 h; for TGI: COLO 205, time 48 hrs
[10] = system: OVCAR-3; test: Antiproliferative activity against human OVCAR-3 cells measured after 48 hrs by SRB assay; type: functional, cell-based; settings: for IC50: OVCAR-3, 48 h; for TGI: OVCAR-3, time 48 hrs
[11] = system: UO-31; test: Antiproliferative activity against human UO-31 cells measured after 48 hrs by SRB assay; type: functional, cell-based; settings: for IC50: UO-31, 48 h; for TGI: UO-31, time 48 hrs
[12] = system: Hep 3B2; test: Antiproliferative activity against human Hep3B cells measured by MTT assay; type: functional, cell-based
[13] = system: EKVX; test: Antiproliferative activity against human EKVX cells measured after 48 hrs by SRB assay; type: functional, cell-based; settings: for IC50: 48 h; for TGI: time 48 hrs
[14] = system: RPMI-8226; test: Induction of apoptosis in human RPMI-8226 cells assessed as fold increase in caspase-3/7 activity at 0.73 uM; type: functional
[15] = system: A498; test: Antiproliferative activity against human A498 cells measured after 48 hrs by SRB assay; type: functional, cell-based; settings: for IC50: A498, 48 h; for TGI: A498, time 48 hrs
[16] = system: OVCAR-8; test: Antiproliferative activity against human OVCAR-8 cells measured after 48 hrs by SRB assay; type: functional, cell-based; settings: for IC50: OVCAR-8, 48 h; for TGI: OVCAR-8, time 48 hrs
[17] = system: MDA-MB-435; test: Antiproliferative activity against human MDA-MB-435 cells measured after 48 hrs by SRB assay; type: functional, cell-based; settings: for IC50: MDA-MB-435, 48 h; for TGI: MDA-MB-435, time 48 hrs
[18] = system: SK-MEL-5; test: Antiproliferative activity against human SK-MEL-5 cells measured after 48 hrs by SRB assay; type: functional, cell-based; settings: for IC50: SK-MEL-5, 48 h; for TGI: SK-MEL-5, time 48 hrs
[19] = system: SK-OV-3; test: Antiproliferative activity against human SK-OV-3 cells measured after 48 hrs by SRB assay; type: functional, cell-based; settings: for IC50: SK-OV-3, 48 h; for TGI: SK-OV-3, time 48 hrs
[20] = system: PC-3; test: Antiproliferative activity against human PC-3 cells measured after 48 hrs by SRB assay; type: functional, cell-based; settings: for IC50: PC-3, 48 h; for TGI: PC-3, time 48 hrs
[21] = system: SNB-19; test: Antiproliferative activity against human SNB-19 cells measured after 48 hrs by SRB assay; type: functional, cell-based; settings: for IC50: SNB-19, 48 h; for TGI: SNB-19, time 48 hrs
[22] = system: HCT-15; test: Antiproliferative activity against human HCT-15 cells measured after 48 hrs by SRB assay; type: functional, cell-based; settings: for IC50: HCT-15, 48 h; for TGI: HCT-15, time 48 hrs
[23] = system: ACHN; test: Antiproliferative activity against human ACHN cells measured after 48 hrs by SRB assay; type: functional, cell-based; settings: for IC50: 48 h; for TGI: time 48 hrs
[24] = system: RPMI-8226; test: Induction of necrosis in human RPMI-8226 cells assessed as LDH release at 6.12 uM; type: functional
[25] = system: HCC 2998; test: Antiproliferative activity against human HCC 2998 cells measured after 48 hrs by SRB assay; type: functional, cell-based; settings: for IC50: HCC 2998, 48 h; for TGI: HCC 2998, time 48 hrs
[26] = system: RPMI-8226; test: Induction of apoptosis in human RPMI-8226 cells assessed as fold increase in caspase-3/7 activity at 6.12 uM; type: functional
[27] = system: HOP-92; test: Antiproliferative activity against human HOP-92 cells measured after 48 hrs by SRB assay; type: functional, cell-based; settings: for IC50: HOP-92, 48 h; for TGI: HOP-92, time 48 hrs
[28] = system: OVCAR-5; test: Antiproliferative activity against human OVCAR-5 cells measured after 48 hrs by SRB assay; type: functional, cell-based; settings: for IC50: OVCAR-5, 48 h; for TGI: OVCAR-5, time 48 hrs
[29] = system: RPMI-8226; test: Induction of necrosis in human RPMI-8226 cells assessed as LDH release at 0.73 uM; type: functional
[30] = system: HepG2; test: Antiproliferative activity against human HepG2 cells measured by MTT assay; type: functional, cell-based

Mitogen-activated protein kinase 10, sequence (P53779 whole entry): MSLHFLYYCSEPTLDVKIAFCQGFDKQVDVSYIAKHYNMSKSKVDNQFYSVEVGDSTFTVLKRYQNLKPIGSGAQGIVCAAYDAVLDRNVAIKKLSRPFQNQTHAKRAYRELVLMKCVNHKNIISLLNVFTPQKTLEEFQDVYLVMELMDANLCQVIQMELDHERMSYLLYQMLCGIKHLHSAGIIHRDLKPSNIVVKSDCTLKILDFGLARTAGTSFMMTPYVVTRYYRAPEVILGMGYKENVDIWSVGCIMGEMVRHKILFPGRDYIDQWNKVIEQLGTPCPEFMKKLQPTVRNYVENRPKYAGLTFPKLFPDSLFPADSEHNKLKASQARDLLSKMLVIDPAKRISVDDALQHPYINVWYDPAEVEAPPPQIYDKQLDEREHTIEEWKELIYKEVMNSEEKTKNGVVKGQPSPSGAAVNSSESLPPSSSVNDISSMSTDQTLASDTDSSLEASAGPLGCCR

SMILES: O=C(NCCCNc1cc(-c2cn(-c3ccccc3)nc2-c2cccc(O)c2)ccn1)Nc1cccc(C(F)(F)F)c1
- inhibition [1]: 73%
- IC50 [2]: 1.54 µM
- TGI [2]: 6.08 µM
- IC50 [3]: 1.34 µM
- TGI [3]: 7.74 µM
- IC50 [4]: 1.67 µM
- TGI [4]: 15 µM
- IC50 [5]: 13.6 µM
- IC50 [6]: 0.73 µM
- TGI [6]: 6.12 µM
- IC50 [7]: 5.75 µM
- TGI [7]: 13.2 µM
- IC50 [8]: 1.76 µM
- TGI [8]: 6.42 µM
- IC50 [9]: 2.97 µM
- TGI [9]: 8.72 µM
- IC50 [10]: 1.87 µM
- TGI [10]: 9.35 µM
- IC50 [11]: 2.1 µM
- TGI [11]: 10.8 µM
- IC50 [12]: 4.9 µM
- IC50 [13]: 3.5 µM
- TGI [13]: 8.45 µM
- fold change (FC) [14]: 1.96
- IC50 [15]: 3.17 µM
- TGI [15]: 7.18 µM
- IC50 [16]: 3.88 µM
- TGI [16]: 10 µM
- IC50 [17]: 3.41 µM
- TGI [17]: 7.57 µM
- IC50 [18]: 3.25 µM
- TGI [18]: 7.17 µM
- IC50 [19]: 4.49 µM
- TGI [19]: 10.1 µM
- IC50 [20]: 1.79 µM
- TGI [20]: 11.2 µM
- IC50 [21]: 3.99 µM
- TGI [21]: 8.97 µM
- IC50 [22]: 1.06 µM
- TGI [22]: 4.32 µM
- IC50 [23]: 5.24 µM
- TGI [23]: 15.5 µM
- Activity [24]: 34.5%
- IC50 [25]: 1.26 µM
- TGI [25]: 4.34 µM
- fold change (FC) [26]: 2.83
- IC50 [27]: 1.25 µM
- TGI [27]: 6.01 µM
- IC50 [28]: 3.96 µM
- TGI [28]: 9.71 µM
- Activity [29]: 6.7%
- IC50 [30]: 6.42 µM

SMILES: O=C(Nc1ccc(Cl)c(C(F)(F)F)c1)N1CCN(c2cc(-c3cn(-c4ccccc4)nc3-c3cccc(O)c3)ccn2)CC1
- inhibition [1]: 14%
- IC50 [2]: 3.3 µM
- TGI [2]: 8.95 µM
- IC50 [3]: 3.39 µM
- TGI [3]: 15.8 µM
- IC50 [4]: 0.93 µM
- TGI [4]: 7.58 µM
- IC50 [5]: > 20 µM
- IC50 [6]: 1.21 µM
- TGI [6]: 11.8 µM
- IC50 [7]: 5.92 µM
- TGI [7]: > 22 µM
- IC50 [8]: 1.5 µM
- TGI [8]: 7.25 µM
- IC50 [9]: 3.01 µM
- TGI [9]: 9.39 µM
- IC50 [10]: 1.76 µM
- TGI [10]: 11.5 µM
- IC50 [11]: 3 µM
- TGI [11]: > 22 µM
- IC50 [13]: 2.57 µM
- TGI [13]: 19.6 µM
- IC50 [15]: 4.72 µM
- TGI [15]: 21 µM
- IC50 [16]: 4.72 µM
- TGI [16]: > 22 µM
- IC50 [17]: 2.29 µM
- TGI [17]: 6.33 µM
- IC50 [18]: 2.58 µM
- TGI [18]: 5.45 µM
- IC50 [19]: 6.43 µM
- TGI [19]: > 22 µM
- IC50 [20]: 0.97 µM
- TGI [20]: 17 µM
- IC50 [21]: 4.06 µM
- TGI [21]: > 22 µM
- IC50 [22]: 2.84 µM
- TGI [22]: > 22 µM
- IC50 [23]: 3 µM
- TGI [23]: 17 µM
- IC50 [25]: 6.1 µM
- TGI [25]: > 22 µM
- IC50 [27]: 2.59 µM
- TGI [27]: 15.9 µM
- IC50 [28]: 4.13 µM
- TGI [28]: 10.5 µM

SMILES: O=C1c2ccccc2-c2n[nH]c3cccc1c23
- IC50 [2]: 16.4 µM
- TGI [2]: 58.9 µM
- IC50 [3]: 55.1 µM
- TGI [3]: > 100 µM
- IC50 [4]: 20.4 µM
- TGI [4]: > 100 µM
- IC50 [5]: > 20 µM
- IC50 [6]: 18.8 µM
- TGI [6]: > 100 µM
- IC50 [7]: 5.93 µM
- TGI [7]: 52 µM
- IC50 [8]: 22.5 µM
- TGI [8]: 86.3 µM
- IC50 [9]: 19.5 µM
- TGI [9]: > 100 µM
- IC50 [10]: 15.3 µM
- TGI [10]: 92 µM
- IC50 [11]: 10.5 µM
- TGI [11]: > 100 µM
- IC50 [13]: 20 µM
- TGI [13]: > 100 µM
- IC50 [15]: 7.03 µM
- TGI [15]: 35.4 µM
- IC50 [16]: 22 µM
- TGI [16]: > 100 µM
- IC50 [17]: 12.8 µM
- TGI [17]: > 100 µM
- IC50 [18]: 14.6 µM
- TGI [18]: 37.5 µM
- IC50 [19]: 21 µM
- TGI [19]: > 100 µM
- IC50 [20]: 23.3 µM
- TGI [20]: > 100 µM
- IC50 [21]: 50 µM
- TGI [21]: > 100 µM
- IC50 [22]: 8.04 µM
- TGI [22]: > 100 µM
- IC50 [23]: 6.64 µM
- TGI [23]: > 100 µM
- IC50 [25]: 9.62 µM
- TGI [25]: 54.6 µM
- IC50 [27]: 37.6 µM
- TGI [27]: > 100 µM
- IC50 [28]: 24.4 µM
- TGI [28]: 85.5 µM

Source: ChEMBL document CHEMBL5113453, “Design, synthesis, and biological evaluation of a new series of pyrazole derivatives: Discovery of potent and selective JNK3 kinase inhibitors” (Bioorg Med Chem, 2022)
